Data as given in patent publication US20050113450A1, “Antibacterial agents” (priority 2002, published 2005).
≈ marks a conversion by molar mass, not a printed value.

Tested on: SA 9218
Assay: MIC by standard agar dilution method
Format: cell-based
Conditions: Mueller Hinton agar, 10^4 to 10^5 cells per spot, incubated overnight at 35° C., lowest concentration that inhibits visible growth
Method in brief: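 Agar dilution: two-fold compound dilutions mixed into molten Mueller Hinton agar, spots of ~10^4–10^5 cells from 0.5 McFarland suspension diluted 1:20 in TSB. Incubated overnight at 35 °C; MIC is lowest concentration inhibiting visible growth.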

Compound	MIC [µg/mL]	SA 9218 MIC [µg/mL]
CN(CCC(O)c1ccccc1)S(=O)(=O)c1ccc(C(=O)Nc2ccc(C#N)cc2C(=O)O)cc1 (centres unmarked) [PHA-656861]	32 (≈ 64.8 µM)	
N#Cc1ccc(NC(=O)c2ccc(S(=O)(=O)N(CCO)Cc3ccccc3)cc2)c(C(=O)O)c1 [PHA-656862]	32 (≈ 66.7 µM)	
N#Cc1ccc(NC(=O)c2cccc(S(=O)(=O)N3CCCC3CO)c2)c(C(=O)O)c1 (centres unmarked) [PHA-656863]	8 (≈ 18.6 µM)	
N#Cc1ccc(NC(=O)c2ccc(S(=O)(=O)NC3CCc4ccccc43)cc2)c(C(=O)O)c1 (centres unmarked) [PHA-656866]	> 128	
CCCCN(CCO)S(=O)(=O)c1ccc(C(=O)Nc2ccc(C#N)cc2C(=O)O)cc1 [PHA-656867]	64 (≈ 144 µM)	
N#Cc1ccc(NC(=O)c2ccc(S(=O)(=O)N3CCCC3CO)cc2)c(C(=O)O)c1 (centres unmarked) [PHA-656868]	> 128	
C=CCN(C1CCCC1)S(=O)(=O)c1cccc(C(=O)Nc2ccc(C#N)cc2C(=O)O)c1 [PHA-656870]	8 (≈ 17.6 µM)	
CC1CCCN1S(=O)(=O)c1ccc(C(=O)Nc2ccc(C#N)cc2C(=O)O)cc1 (centres unmarked) [PHA-656871]	128 (≈ 310 µM)	
CN(CCc1ccccn1)S(=O)(=O)c1cccc(C(=O)Nc2ccc(C#N)cc2C(=O)O)c1 [PHA-656872]	> 128	
O=C(Nc1ccc(Cl)cc1C(=O)O)c1cccc(C(=O)c2ccc3ccccc3n2)c1 [PHA-656880]	16 (≈ 37.1 µM)	
O=C(COc1ccccc1)c1cccc(C(=O)Nc2ccc(Cl)cc2C(=O)O)c1 [PHA-656882]	16 (≈ 39 µM)	
COC(=O)c1cccc(C(=O)c2ccc(C(=O)Nc3ccc(Cl)cc3C(=O)O)cc2)c1 [PHA-656883]	16 (≈ 36.5 µM)	
CC(C)C(=O)c1cccc(C(=O)Nc2ccc(Cl)cc2C(=O)O)c1 [PHA-656884]	16 (≈ 46.3 µM)	
COc1ccccc1C(=O)c1cccc(C(=O)Nc2ccc(Cl)cc2C(=O)O)c1 [PHA-656885]	16 (≈ 39 µM)	
COC(=O)c1cccc(C(=O)c2cccc(C(=O)Nc3ccc(Cl)cc3C(=O)O)c2)c1 [PHA-656886]	16 (≈ 36.5 µM)	
O=C(Nc1ccc(Cl)cc1C(=O)O)c1cccc(C(=O)c2cccs2)c1 [PHA-656887]	8 (≈ 20.7 µM)	
O=C(Nc1ccc(Cl)cc1C(=O)O)c1cccc(C(=O)C2CCC2)c1 [PHA-656888]	16 (≈ 44.7 µM)	
CC(C)(C)CC(=O)c1cccc(C(=O)Nc2ccc(Cl)cc2C(=O)O)c1 [PHA-656889]	16 (≈ 42.8 µM)	
O=C(Nc1ccc(Cl)cc1C(=O)O)c1cccc(C(=O)C2CC2)c1 [PHA-656890]	16 (≈ 46.5 µM)	
O=C(CCC1CCCC1)c1cccc(C(=O)Nc2ccc(Cl)cc2C(=O)O)c1 [PHA-656891]	16 (≈ 40 µM)	

Compound	MIC [µg/mL]	SA 9218 MIC [µg/mL]
O=C(Nc1ccc(Cl)cc1C(=O)O)c1cccc(C(=O)c2ccc(F)c(F)c2)c1 [PHA-656892]	8 (≈ 19.2 µM)	
O=C(Nc1ccc(Cl)cc1C(=O)O)c1cccc(C(=O)c2cc(F)cc(F)c2)c1 [PHA-656893]	8 (≈ 19.2 µM)	
Cc1cccc(C(=O)c2cccc(C(=O)Nc3ccc(Cl)cc3C(=O)O)c2)c1 [PHA-656894]	16 (≈ 40.6 µM)	
O=C(Nc1ccc(Cl)cc1C(=O)O)c1cc(Br)cc(S(=O)(=O)N2CCOCC2)c1 [PHA-662250]	1 (≈ 1.99 µM)	
N#Cc1ccc(NC(=O)c2cccc(C(=O)N3CCOCC3)c2)c(C(=O)O)c1 [PHA-662412]	64 (≈ 169 µM)	
N#Cc1ccc(NC(=S)c2cccc(S(=O)(=O)N3CCOCC3)c2)c(C(=O)O)c1 [PHA-662430]	1 (≈ 2.32 µM)	
N#Cc1ccc(NC(=S)c2cccc(S(=O)(=O)N3CCCC3)c2)c(C(=O)O)c1 [PHA-662431]	1 (≈ 2.41 µM)	
N#Cc1ccc(NC(=O)c2cccc(S(=O)(=O)N3CCOCC3)c2)c(C(=O)O)c1 [PHA-662951]		32
Cc1cc(C(=O)Nc2ccc(Cl)cc2C(=O)O)cc(S(=O)(=O)N2CCc3ccccc32)c1 [PHA-664658]	4 (≈ 8.49 µM)	
O=Cc1ccc(NC(=O)c2cccc(S(=O)(=O)N3CCOCC3)c2)c(C(=O)O)c1 [PHA-666124]	32 (≈ 76.5 µM)	
CN(c1ccccc1N)S(=O)(=O)c1cccc(C(=O)Nc2ccc(C#N)cc2C(=O)O)c1 [PHA-670083]	0.5 (≈ 1.11 µM)	
O=C(Nc1ccc(/C=N/O)cc1C(=O)O)c1cccc(S(=O)(=O)N2CCOCC2)c1 [PHA-679756]	> 128	
CO/N=C/c1ccc(NC(=O)c2cccc(S(=O)(=O)N3CCOCC3)c2)c(C(=O)O)c1 [PHA-679759]	> 128	
O=Cc1ccc(NC(=O)c2cc(Br)cc(S(=O)(=O)N3CCc4cc(Cl)ccc43)c2)c(C(=O)O)c1 [PHA-681768]	1 (≈ 1.77 µM)	
CO/N=C/c1ccc(NC(=O)c2cccc(S(=O)(=O)N3CCc4cc(Cl)ccc43)c2)c(C(=O)O)c1 [PHA-682996]	64 (≈ 125 µM)	
O=C(Nc1ccc(/C=N/O)cc1C(=O)O)c1cccc(S(=O)(=O)N2CCc3cc(Cl)ccc32)c1 [PHA-686834]	4 (≈ 8 µM)	
N#Cc1ccc(C2CC2c2cccc(S(=O)(=O)N3CCc4cc(Cl)ccc43)c2)c(C(=O)O)c1 (centres unmarked) [PHA-687511]	4 (≈ 8.35 µM)	
O=C(Nc1ccc(C#CCO)cc1C(=O)O)c1cccc(S(=O)(=O)N2CCc3ccccc32)c1 [PHA-687570]	128 (≈ 269 µM)	
O=C(O)c1cc(Cl)ccc1/C=C/c1cccc(S(=O)(=O)N2CCc3cc(Cl)ccc32)c1 [PHA-707801]	4 (≈ 8.43 µM)	
CC(=O)c1ccc(CC(=O)c2ccc(S(=O)(=O)N3CCc4cc(Cl)ccc43)cc2)c(C(=O)O)c1 [PHA-708922]	> 128	

Compound	MIC [µg/mL]	SA 9218 MIC [µg/mL]
CC(=O)c1ccc(NC(=O)c2cccc(S(=O)(=O)N3CCOCC3)c2)c(C(=O)O)c1 [PHA-708923]	32 (≈ 74 µM)	
O=C(Nc1cccc(C(=O)Nc2ccc(Br)cc2C(=O)O)c1)c1ccccc1 [PHA-708976]	32 (≈ 72.8 µM)	
O=C(Nc1ccc(C(=O)Nc2ccc(Br)cc2C(=O)O)cc1)c1ccccc1 [PHA-708977]	> 128	
O=C(Nc1ccc(Br)cc1C(=O)O)c1cccc(NC(=O)c2ccco2)c1 [PHA-708978]	32 (≈ 74.6 µM)	
O=C(Nc1ccc(Br)cc1C(=O)O)c1ccc(NC(=O)c2ccco2)cc1 [PHA-708979]	> 128	
O=C(Cc1cccs1)Nc1cccc(C(=O)Nc2ccc(Br)cc2C(=O)O)c1 [PHA-708980]	16 (≈ 34.8 µM)	
Cc1cc(C)c(C(=O)Nc2cccc(C(=O)Nc3ccc(Br)cc3C(=O)O)c2)c(C)c1 [PHA-708981]	16 (≈ 33.2 µM)	
Cc1cc(C)c(C(=O)Nc2ccc(C(=O)Nc3ccc(Br)cc3C(=O)O)cc2)c(C)c1 [PHA-708982]	128 (≈ 266 µM)	
O=C(Nc1cccc(C(=O)Nc2ccc(Br)cc2C(=O)O)c1)c1ccc2c(c1)OCO2 [PHA-708983]	32 (≈ 66.2 µM)	
COc1ccc(C(=O)Nc2cccc(C(=O)Nc3ccc(Br)cc3C(=O)O)c2)c(OC)c1 [PHA-708984]	32 (≈ 64.1 µM)	
O=C(CSc1ccccc1)Nc1cccc(C(=O)Nc2ccc(Br)cc2C(=O)O)c1 [PHA-708985]	8 (≈ 16.5 µM)	
COCC(=O)Nc1cccc(C(=O)Nc2ccc(Br)cc2C(=O)O)c1 [PHA-708986]	64 (≈ 157 µM)	
COCC(=O)Nc1ccc(C(=O)Nc2ccc(Br)cc2C(=O)O)cc1 [PHA-708987]	> 128	
O=C(Nc1ccccc1)Nc1cccc(C(=O)Nc2ccc(Br)cc2C(=O)O)c1 [PHA-708988]	32 (≈ 70.4 µM)	
O=C(Nc1cccc(C(=O)Nc2ccc(Br)cc2C(=O)O)c1)Nc1ccc(F)cc1F [PHA-708989]	8 (≈ 16.3 µM)	
N#Cc1cccc(NC(=O)Nc2cccc(C(=O)Nc3ccc(Br)cc3C(=O)O)c2)c1 [PHA-708990]	8 (≈ 16.7 µM)	
O=C(Nc1cccc(Cl)c1)Nc1cccc(C(=O)Nc2ccc(Br)cc2C(=O)O)c1 [PHA-708991]	4 (≈ 8.18 µM)	
CSc1cccc(NC(=O)Nc2cccc(C(=O)Nc3ccc(Br)cc3C(=O)O)c2)c1 [PHA-708992]	4 (≈ 7.99 µM)	
CC(=O)c1cccc(NC(=O)Nc2cccc(C(=O)Nc3ccc(Br)cc3C(=O)O)c2)c1 [PHA-708993]	4 (≈ 8.06 µM)	
